“Also recorded” adds a separate entry of the source. Like-named read-outs stand apart in the source and are kept apart here.

Here are results for 25 compounds from patent US20260102418A1, “An anti-influenza virus derivative and uses thereof” (Shijiazhuang Discovery Medicine Technology Co., Ltd., priority 2022, published 2026).

The nature of data set [1]: Cytotoxicity test in MDCK cells (CPE method, 72 hours). Conditions: dog.
The subject of data set [2] is influenza virus (A/HPB/359/95 (H3N2)). As to the kind of experiment: organism not typed. Conditions: MDCK, read-out: Anti-IAV EC50.
In data set [3] the test system is A/WSN/33 (H1N1). As to the kind of experiment: Antiviral CPE assay in MDCK, other influenza strains. Format: cell-based, influenza A virus (IAV). As to conditions: Influenza A virus, CPE method.
The test system of data set [4] is A/PR/8/34 (H1N1) (PR8). The description is as above. As to conditions: Influenza A virus, CPE method. Format: cell-based, influenza A virus (IAV).
A short description of data set [5]: in vitro. Conditions: dog.
For data set [6], the system named is A/PR/8/34 (H1N1) virus. Briefly: Virus titer test and histopathological examination in influenza virus mouse model. Conditions: for lung tissue pathology examination: left lung 5 days after infection. Format: in vivo, C57BL/6J mice. As for the experimental part:
Fifteen C57BL/6J mice (female, 8 weeks, 18-20 g) were divided into 5 groups (group A, group B, group C, group D and group E), 3 in each group. After intranasal inoculation with a semi-lethal dose of A/PR/8/34 (H1N1) virus, group A/group B/group C were respectively given intragastric administration of test drugs (group A: DS1494; group B: DS1833; group C: M42, all suspended in 1% methylcellulose solution, and the dosage of each group was 2 mg/kg), group D was given oral gavage with the same volume of 1% methylcellulose solution, and group E was given intraperitoneal injection of test drug DS1835 (the dosage was 1.4 mg/kg, dissolved in physiological saline), and each group was given drug administration once a day. Lung tissue samples were collected 5 days after infection, the left lung was examined for pathology, and the right lung was homogenized for TCID50 determination.

Data set [7] concerns B/Massachusetts/2/2012 (BY-3). As to the kind of experiment: Antiviral CPE assay in MDCK, other influenza strains. Format: cell-based. Conditions: Influenza B virus.
For data set [8], the system named is B/Beijing-Haidian/1386/2013 (BV). Described as above. Format: cell-based. Conditions: Influenza B virus, CPE method.
Data set [9] deals with influenza virus (A/HPB/359/95 (H3N2)).
The subject of data set [10] is MDCK cells. Briefly: Cytotoxicity test in MDCK cells (CPE method, 72 hours). As to conditions: read-out: TC50 in MDCK; MDCK cells, 72 hours, CPE method.
[11] abbreviates: PR8 = A/Puerto Rico/8/1934(H1N1), MDCK.
[12] abbreviates: 2 mg/kg intragastric once a day.
The mark [13] stands for this setting: HD = B/Beijing-Haidian/1386/2013 (BV).

The EC50 is the concentration needed to bring the measured effect to its halfway point. In the case of `O=C1c2c(O)c(=O)ccn2N([C@@H]2c3ccccc3SCc3c2ccc(F)c3F)[C@@H]2COC3(CC3)CN12` [Compound M41, reference compound], the CC50 at 72 h in data set [1] (MDCK cells) is > 20000 nM. The EC50 in data set [2] stood at 0.63 ± 0.03 nM.
For `COC(=O)OCOc1c2n(ccc1=O)N([C@@H]1c3ccccc3SCc3c1ccc(F)c3F)[C@@H]1COC3(CC3)CN1C2=O` [Compound M42, reference compound], the EC50 in data set [3] stood at 0.00228 ± 0.00042 µM; in [4] (setting [11]) it was 0.00193 ± 0.00055 µM; in data set [2], 0.76 ± 0.04 nM; in [7] (MDCK), 0.00724 ± 0.00136 µM; in data set [8] (setting [13]) it was 0.00621 ± 0.00109 µM. In addition, the CC50 in data set [5] was > 20000 nM. In addition, the “lung tissue pathology examination” value in data set [6] (setting [12]) was “clear bronchial structure, and the epithelial cells were arranged neatly with a small amount of inflammatory cell infiltration; also recorded: a small amount of epithelial cell necrosis was observed”.
Consider `COC(=O)OCOc1c2n(ccc1=O)N([C@@H]1c3ccccc3[Se]Cc3c1ccc(F)c3F)[C@@H]1COCCN1C2=O` [Compound M43, reference compound], for which the EC50 in [7] (MDCK) was found to be 0.0113 ± 0.00253 µM; in data set [8] (setting [13]), 0.00839 ± 0.00175 µM.
Consider `O=C1c2c(O)c(=O)ccn2N([C@@H]2c3ccccc3[Se]Cc3c2ccc(F)c3F)[C@@H]2COC3(CC3)CN12` [DS1491], for which the CC50 in data set [5] was > 20000 nM. Moreover, the “therapeutic index (TC50/EC50)” value in data set [9] is “higher therapeutic index”. The EC50 in data set [2] is 0.2 ± 0.01 nM.
Regarding `[2H][C@@]1(N2[C@@H]3COC4(CC4)CN3C(=O)c3c(O)c(=O)ccn32)c2ccccc2[Se]Cc2c1ccc(F)c2F` [DS1492], in [5], the CC50 was > 20000 nM. Also, in [2], the EC50 is 0.14 ± 0.03 nM.
As to `C[C@@]1(N2[C@@H]3COC4(CC4)CN3C(=O)c3c(O)c(=O)ccn32)c2ccccc2[Se]Cc2c1ccc(F)c2F` [DS1493], the CC50 in [5] was > 20000 nM. Further, the “therapeutic index (TC50/EC50)” value in data set [9] is recorded as “higher therapeutic index”. Further, the EC50 in data set [2] came to 0.1 ± 0.01 nM.
Regarding `[2H][C@@]1(N2[C@@H]3COC4(CC4)CN3C(=O)c3c(OCOC(=O)OC)c(=O)ccn32)c2ccccc2[Se]Cc2c1ccc(F)c2F` [DS1495], in [5], the CC50 was > 20000 nM. Further, the EC50 in [2] worked out at 0.28 ± 0.03 nM.
Take `COC(=O)OCOc1c2n(ccc1=O)N([C@]1(C)c3ccccc3[Se]Cc3c1ccc(F)c3F)[C@@H]1COC3(CC3)CN1C2=O` [DS1496]: the CC50 in [5] was > 20000 nM. In data set [2], the EC50 is 0.43 ± 0.02 nM.
As for `O=C1c2c(OCOP(=O)(O)O)c(=O)ccn2N([C@@H]2c3ccccc3[Se]Cc3c2ccc(F)c3F)[C@@H]2COC3(CC3)CN12` [DS1497], the CC50 in [5] is > 20000 nM. Besides, the EC50 in data set [2] worked out at 0.37 ± 0.04 nM.
On to `[2H][C@@]1(N2[C@@H]3COC4(CC4)CN3C(=O)c3c(OCOP(=O)(O)O)c(=O)ccn32)c2ccccc2[Se]Cc2c1ccc(F)c2F` [DS1498], for which the CC50 at 72 h in data set [1] was > 20000 nM. Besides, the EC50 in data set [2] was 0.31 ± 0.02 nM.
With `C[C@@]1(N2[C@@H]3COC4(CC4)CN3C(=O)c3c(OCOP(=O)(O)O)c(=O)ccn32)c2ccccc2[Se]Cc2c1ccc(F)c2F` [DS1499], the CC50 in [5] is > 20000 nM. In addition, the EC50 in [2] came out at 0.29 ± 0.02 nM.
For `CCOP(=O)(OCC)OCOc1c2n(ccc1=O)N([C@@H]1c3ccccc3[Se]Cc3c1ccc(F)c3F)[C@@H]1COC3(CC3)CN1C2=O` [DS1831] the same measures were > 20000 nM and 0.19 ± 0.02 nM.
As to `O=C1c2c(OCOP(=O)(OCc3ccccc3)OCc3ccccc3)c(=O)ccn2N([C@@H]2c3ccccc3[Se]Cc3c2ccc(F)c3F)[C@@H]2COC3(CC3)CN12` [DS1832], in data set [5], the CC50 is > 20000 nM. The EC50 in data set [2] amounted to 0.21 ± 0.03 nM.
Consider `[2H]C([2H])([2H])OC(=O)OCOc1c2n(ccc1=O)N([C@@H]1c3ccccc3[Se]Cc3c1ccc(F)c3F)[C@@H]1COC3(CC3)CN1C2=O` [DS1833], for which the EC50 is 0.00102 ± 0.00027 µM in [3]; 0.00089 ± 0.00022 µM in data set [4] (setting [11]); 0.11 ± 0.02 nM in data set [2]; 0.00277 ± 0.00075 µM in data set [7] (MDCK); 0.00338 ± 0.00067 µM in [8] (setting [13]). Also, the CC50 in data set [5] is > 20000 nM. Moreover, the “lung tissue pathology examination” value in data set [6] (setting [12]) was “clear bronchial structure, and the epithelial cells were arranged neatly with a small amount of inflammatory cell infiltration”. The “lung tissue virus titers compared with M42 at the same dose” value in data set [6] (2 mg/kg intragastric once a day, right lung TCID50 5 days after infection) is “lower”.
Consider `[2H]C([2H])([2H])OC(=O)OCOc1c2n(ccc1=O)N([C@]1([2H])c3ccccc3[Se]Cc3c1ccc(F)c3F)[C@@H]1COC3(CC3)CN1C2=O` [DS1834], for which, in data set [5], the CC50 was > 20000 nM. Moreover, the EC50 in data set [2] is 0.1 ± 0.01 nM.
Consider `O=C1c2c(O)c(=O)ccn2N([C@@H]2c3ccccc3[Se]Cc3c2ccc(F)c3F)[C@@H]2COC3(CC3)CN12` [DS1835], for which the “lung tissue pathology examination” value in [6] (1.4 mg/kg intraperitoneal injection once a day) was “clear bronchial structure, and the epithelial cells had complete morphology and neat arrangement”. Moreover, in [6] (1.4 mg/kg intraperitoneal injection once a day, right lung TCID50 5 days after infection), the “lung tissue virus titer” value is recorded as “lowest lung tissue virus titer”.
Turning to `[2H]C([2H])([2H])OC(=O)OCOc1c2n(ccc1=O)N([C@@H]1c3ccccc3SCc3c1ccc(F)c3F)[C@@H]1COC3(CC3)CN1C2=O` [DS1837], the EC50 was 0.00136 ± 0.00022 µM in data set [3]; 0.00126 ± 0.00047 µM in data set [4] (setting [11]); 0.65 ± 0.03 nM in [2]; 0.00588 ± 0.00091 µM in data set [7] (MDCK); 0.00565 ± 0.00073 µM in data set [8] (setting [13]). Besides, the CC50 at 72 h in data set [5] is > 20000 nM.
Regarding `[2H]C([2H])([2H])OC(=O)OCOc1c2n(ccc1=O)N([C@]1([2H])c3ccccc3SCc3c1ccc(F)c3F)[C@@H]1COC3(CC3)CN1C2=O` [DS1838], the CC50 at 72 h in data set [5] is > 20000 nM. Besides, in [2], the EC50 is 0.52 ± 0.04 nM.
As to `O=C1c2c(OP(=O)(O)O)c(=O)ccn2N([C@@H]2c3ccccc3[Se]Cc3c2ccc(F)c3F)[C@@H]2COC3(CC3)CN12` [DS14910], the CC50 in [5] is > 20000 nM. Moreover, the EC50 in data set [2] came to 0.21 ± 0.02 nM.
For `[2H][C@@]1(N2[C@@H]3COC4(CC4)CN3C(=O)c3c(OP(=O)(O)O)c(=O)ccn32)c2ccccc2[Se]Cc2c1ccc(F)c2F` [DS14911], in that order: > 20000 nM and 0.19 ± 0.03 nM.
For `C[C@@]1(N2[C@@H]3COC4(CC4)CN3C(=O)c3c(OP(=O)(O)O)c(=O)ccn32)c2ccccc2[Se]Cc2c1ccc(F)c2F` [DS14912], in that order: > 20000 nM and 0.17 ± 0.01 nM.
Regarding `O=C1c2c(OCOP(=O)(O)O)c(=O)ccn2N([C@@H]2c3ccccc3[Se]Cc3c2ccc(F)c3F)[C@@H]2COC3(CC3)CN12` [DS14915], the EC50 came to 0.00113 ± 0.00031 µM in [3], 0.00097 ± 0.00036 µM in [4] (setting [11]), 0.00218 ± 0.00056 µM in [7] (MDCK) and 0.00247 ± 0.00048 µM in [8] (setting [13]).
Take `O=C1c2c(OCOP3(=O)OCCCO3)c(=O)ccn2N([C@@H]2c3ccccc3[Se]Cc3c2ccc(F)c3F)[C@@H]2COC3(CC3)CN12` [DS15812]: in [5], the CC50 was > 20000 nM. The EC50 in data set [2] was 0.25 ± 0.03 nM.
Turning to `NC(=O)c1ncn([C@@H]2O[C@H](CO)[C@@H](O)[C@H]2O)n1` [Ribavirin, reference compound], the EC50 came out at 27.2 ± 2.79 µM in data set [3] (Ribavirin in μM); 29.6 ± 3.11 µM in [4] (PR8, MDCK, Ribavirin in μM); 33.1 ± 3.29 µM in data set [7] (BY-3, MDCK, CPE method, Ribavirin in μM, read-out: EC50); 34.5 ± 4.85 µM in data set [8] (HD, Ribavirin in μM).
As to Baricitinib, the CC50 in data set [10] is > 20000 nM.
